# Source: patent US20180311217A1, “METHODS OF TREATMENT AND COMPOSITIONS WITH XANTHINE OXIDASE INHIBITORS” (Takeda Pharmaceuticals U.S.A., Inc., priority 2013, published 2018)
# How the values were obtained:
# [1] = system: hyperuricemic gout subjects with moderate to severe renal impairment; assay: Example 1 study: serum creatinine (sCr); assay type: in vivo, human; conditions: for mean sCr: no prior and/or current use ARB or ACEi; for changes in sCr: prior and/or current use of ACEi; for changes in sCr / changes in mean sCr levels: Months 6 and 12; for change in sCr over time compared with placebo: sCr 2.0 to <2.5 mg/dL at Baseline; for change in sCr over time compared to placebo: sUA of 9.0 to <10.0 mg/dL at Baseline
# Experimental: Efficacy of febuxostat was assessed by measurement of serum creatinine (and calculation of eGFR), clinic systolic and diastolic BP, and sUA levels. Serum samples for the analysis of serum creatinine (and calculation of eGFR) were collected at the time points stipulated in Schedule of Study Procedures (Table 1.). The primary efficacy variable was the change from Baseline to Month 12 in sCr. Summary statistics were presented for Baseline, postbaseline, and change from Baseline by treatment group at each visit. The primary analysis was based on the analysis of covariance (ANCOVA) model for change from baseline to Month 12 for the primary efficacy variable. The model included treatment as a factor, and the baseline sCr and prior use of an ARB or an ACEi (subjects taking an ARB or an ACEi or not taking an ARB or an ACEi) as covariates.
# [2] = Study TMX-99-001: febuxostat plasma pharmacokinetics; assay type: in vivo, human; parameters: AUC24/Dose: unit not given here; conditions: mean
structure (smiles),measurement,setting,value
"Cc1nc(-c2ccc(OCC(C)C)c(C#N)c2)sc1C(=O)O [Febuxostat, 2-[3-cyano-4-(2-methylpropoxy)phenyl]-4-methylthiazole-5-carboxylic acid]",renal function preservation compared with febuxostat 40/80 mg QD,[1]; 30 mg BID,better renal function preservation
same,"Serum Creatinine, Change from Baseline","[1]; 30 mg BID, Day 14",0.09 mg/dL
same,"Serum Creatinine, Mean","[1]; 30 mg BID, Day 14",2.18 mg/dL
same,"Serum Creatinine, Change from Baseline","[1]; 30 mg BID, Month 1",0.13 mg/dL
same,"Serum Creatinine, Mean","[1]; 30 mg BID, Month 1",2.23 mg/dL
same,"Serum Creatinine, Change from Baseline","[1]; 30 mg BID, Month 3",0.09 mg/dL
same,"Serum Creatinine, Mean","[1]; 30 mg BID, Month 3",2.18 mg/dL
same,"Serum Creatinine, Change from Baseline","[1]; 30 mg BID, Month 6",0.03 mg/dL
same,"Serum Creatinine, Mean","[1]; 30 mg BID, Month 6",2.12 mg/dL
same,"Serum creatinine change from Baseline, LS mean","[1]; 30 mg BID, Month 6",0.04 mg/dL
same,"Serum creatinine change from Baseline, LS mean difference from placebo group","[1]; 30 mg BID, Month 6",-0.11 mg/dL
same,"Serum Creatinine, Change from Baseline","[1]; 30 mg BID, Month 9",0.11 mg/dL
same,"Serum Creatinine, Mean","[1]; 30 mg BID, Month 9",2.21 mg/dL
same,"Serum Creatinine, Change from Baseline","[1]; 30 mg BID, Month 12",0.04 mg/dL
same,"Serum Creatinine, Mean","[1]; 30 mg BID, Month 12",2.13 mg/dL
same,"Serum creatinine change from Baseline, LS mean","[1]; 30 mg BID, Month 12",0.09 mg/dL
same,"Serum creatinine change from Baseline, LS mean difference from placebo group","[1]; 30 mg BID, Month 12",-0.10 mg/dL
same,mean sCr,[1]; 30 mg BID,increased
same,changes in sCr,[1]; 30 mg BID,slight improvements
same,changes in mean sCr levels,"[1]; 30 mg BID, prior and/or current use of ARB",minimal changes or a slight improvement
same,change in sCr over time compared with placebo,[1]; 30 mg BID,small favorable trend
same,change in sCr over time compared to placebo,[1]; 30 mg BID,small favorable trend
same,changes in mean sCr levels,"[1]; 30 mg BID, subjects with moderate renal impairment",minimal changes
same,"Serum Creatinine, Change from Baseline","[1]; 40/80 mg QD, Day 14",0.08 mg/dL
same,"Serum Creatinine, Mean","[1]; 40/80 mg QD, Day 14",2.30 mg/dL
same,"Serum Creatinine, Change from Baseline","[1]; 40/80 mg QD, Month 1",0.05 mg/dL
same,"Serum Creatinine, Mean","[1]; 40/80 mg QD, Month 1",2.25 mg/dL
same,"Serum Creatinine, Change from Baseline","[1]; 40/80 mg QD, Month 3",0.04 mg/dL
same,"Serum Creatinine, Mean","[1]; 40/80 mg QD, Month 3",2.24 mg/dL
same,"Serum Creatinine, Change from Baseline","[1]; 40/80 mg QD, Month 6",0.06 mg/dL
same,"Serum Creatinine, Mean","[1]; 40/80 mg QD, Month 6",2.26 mg/dL
same,"Serum creatinine change from Baseline, LS mean","[1]; 40/80 mg QD, Month 6",0.07 mg/dL
same,"Serum creatinine change from Baseline, LS mean difference from placebo group","[1]; 40/80 mg QD, Month 6",-0.08 mg/dL
same,"Serum Creatinine, Change from Baseline","[1]; 40/80 mg QD, Month 9",0.01 mg/dL
same,"Serum Creatinine, Mean","[1]; 40/80 mg QD, Month 9",2.22 mg/dL
same,"Serum Creatinine, Change from Baseline","[1]; 40/80 mg QD, Month 12",0.19 mg/dL
same,"Serum Creatinine, Mean","[1]; 40/80 mg QD, Month 12",2.40 mg/dL
same,"Serum creatinine change from Baseline, LS mean","[1]; 40/80 mg QD, Month 12",0.23 mg/dL
same,"Serum creatinine change from Baseline, LS mean difference from placebo group","[1]; 40/80 mg QD, Month 12",0.04 mg/dL
same,mean sCr,[1]; 40/80 mg QD,increased
same,changes in sCr,[1]; 40/80 mg QD,minimal changes
same,change in sCr over time compared with placebo,[1]; 40/80 mg QD,small favorable trend
same,change in sCr over time compared to placebo,[1]; 40/80 mg QD,small favorable trend
same,changes in mean sCr levels,"[1]; 40/80 mg, prior and/or current use of ARB",minimal changes or a slight improvement
same,changes in mean sCr levels,"[1]; 40/80 mg, subjects with moderate renal impairment",small increases
same,Tmax,[2]; IR 30 mg BID,0.70 h
same,Tmin,[2]; IR 30 mg BID,24.00 h
same,AUC24/Dose,"[2]; IR 30 mg BID, AM + PM dose (60 mg)",103.73
same,Cmax,"[2]; IR 30 mg BID, Cmax following AM dose",1488.00 ng/mL
same,Cmax/dose,"[2]; IR 30 mg BID, Cmax following AM dose/AM dose (30 mg)",49.60 ng/mL/mg
same,Cmin,"[2]; IR 30 mg BID, terminal phase of PM dose",59.58 ng/mL
same,AUC24/Dose,[2]; IR 30 mg single dose,84.16
same,Cmax,[2]; IR 30 mg single dose,1283.54 ng/mL
same,Cmax/dose,[2]; IR 30 mg single dose,42.78 ng/mL/mg
same,Tmax,[2]; IR 30 mg single dose,0.89 h
same,Tmin,[2]; IR 30 mg single dose,16.89 h
same,Cmin,"[2]; IR 30 mg single dose, terminal phase at or before 24 hours",17.50 ng/mL
same,AUC4-24,[2]; IR 40 mg single dose,941.11 ng·h/mL
same,AUC24,[2]; IR 40 mg single dose,4295.13 ng·h/mL
same,AUC24/Dose,[2]; IR 40 mg single dose,107.38
same,Cmax,[2]; IR 40 mg single dose,1822.11 ng/mL
same,Cmax/dose,[2]; IR 40 mg single dose,45.55 ng/mL/mg
same,Tmax,[2]; IR 40 mg single dose,1.19 h
same,Tmin,[2]; IR 40 mg single dose,21.00 h
same,Cmin,"[2]; IR 40 mg single dose, terminal phase at or before 24 hours",15.13 ng/mL
same,AUC0-4,[2]; IR 50 mg single dose,3116.06 ng·h/mL
same,AUC24,[2]; IR 50 mg single dose,4374.36 ng·h/mL
same,AUC24/Dose,[2]; IR 50 mg single dose,87.49
same,Cmax,[2]; IR 50 mg single dose,1791.71 ng/mL
same,Cmax/dose,[2]; IR 50 mg single dose,35.83 ng/mL/mg
same,Tmax,[2]; IR 50 mg single dose,1.14 h
